Assay results taken from ChEMBL document CHEMBL2150862, “Cyclopropyl-spiro-piperidines Useful as Sodium Channel Blockers: Patent Highlight” (ACS Med Chem Lett, 2012).

Molecular target: Sodium channel protein type 9 subunit alpha (Homo sapiens, UniProt Q15858)
Test: Inhibition of Nav1.7 by cell-based FLIPR assay

Chain of Sodium channel protein type 9 subunit alpha (Q15858 whole entry): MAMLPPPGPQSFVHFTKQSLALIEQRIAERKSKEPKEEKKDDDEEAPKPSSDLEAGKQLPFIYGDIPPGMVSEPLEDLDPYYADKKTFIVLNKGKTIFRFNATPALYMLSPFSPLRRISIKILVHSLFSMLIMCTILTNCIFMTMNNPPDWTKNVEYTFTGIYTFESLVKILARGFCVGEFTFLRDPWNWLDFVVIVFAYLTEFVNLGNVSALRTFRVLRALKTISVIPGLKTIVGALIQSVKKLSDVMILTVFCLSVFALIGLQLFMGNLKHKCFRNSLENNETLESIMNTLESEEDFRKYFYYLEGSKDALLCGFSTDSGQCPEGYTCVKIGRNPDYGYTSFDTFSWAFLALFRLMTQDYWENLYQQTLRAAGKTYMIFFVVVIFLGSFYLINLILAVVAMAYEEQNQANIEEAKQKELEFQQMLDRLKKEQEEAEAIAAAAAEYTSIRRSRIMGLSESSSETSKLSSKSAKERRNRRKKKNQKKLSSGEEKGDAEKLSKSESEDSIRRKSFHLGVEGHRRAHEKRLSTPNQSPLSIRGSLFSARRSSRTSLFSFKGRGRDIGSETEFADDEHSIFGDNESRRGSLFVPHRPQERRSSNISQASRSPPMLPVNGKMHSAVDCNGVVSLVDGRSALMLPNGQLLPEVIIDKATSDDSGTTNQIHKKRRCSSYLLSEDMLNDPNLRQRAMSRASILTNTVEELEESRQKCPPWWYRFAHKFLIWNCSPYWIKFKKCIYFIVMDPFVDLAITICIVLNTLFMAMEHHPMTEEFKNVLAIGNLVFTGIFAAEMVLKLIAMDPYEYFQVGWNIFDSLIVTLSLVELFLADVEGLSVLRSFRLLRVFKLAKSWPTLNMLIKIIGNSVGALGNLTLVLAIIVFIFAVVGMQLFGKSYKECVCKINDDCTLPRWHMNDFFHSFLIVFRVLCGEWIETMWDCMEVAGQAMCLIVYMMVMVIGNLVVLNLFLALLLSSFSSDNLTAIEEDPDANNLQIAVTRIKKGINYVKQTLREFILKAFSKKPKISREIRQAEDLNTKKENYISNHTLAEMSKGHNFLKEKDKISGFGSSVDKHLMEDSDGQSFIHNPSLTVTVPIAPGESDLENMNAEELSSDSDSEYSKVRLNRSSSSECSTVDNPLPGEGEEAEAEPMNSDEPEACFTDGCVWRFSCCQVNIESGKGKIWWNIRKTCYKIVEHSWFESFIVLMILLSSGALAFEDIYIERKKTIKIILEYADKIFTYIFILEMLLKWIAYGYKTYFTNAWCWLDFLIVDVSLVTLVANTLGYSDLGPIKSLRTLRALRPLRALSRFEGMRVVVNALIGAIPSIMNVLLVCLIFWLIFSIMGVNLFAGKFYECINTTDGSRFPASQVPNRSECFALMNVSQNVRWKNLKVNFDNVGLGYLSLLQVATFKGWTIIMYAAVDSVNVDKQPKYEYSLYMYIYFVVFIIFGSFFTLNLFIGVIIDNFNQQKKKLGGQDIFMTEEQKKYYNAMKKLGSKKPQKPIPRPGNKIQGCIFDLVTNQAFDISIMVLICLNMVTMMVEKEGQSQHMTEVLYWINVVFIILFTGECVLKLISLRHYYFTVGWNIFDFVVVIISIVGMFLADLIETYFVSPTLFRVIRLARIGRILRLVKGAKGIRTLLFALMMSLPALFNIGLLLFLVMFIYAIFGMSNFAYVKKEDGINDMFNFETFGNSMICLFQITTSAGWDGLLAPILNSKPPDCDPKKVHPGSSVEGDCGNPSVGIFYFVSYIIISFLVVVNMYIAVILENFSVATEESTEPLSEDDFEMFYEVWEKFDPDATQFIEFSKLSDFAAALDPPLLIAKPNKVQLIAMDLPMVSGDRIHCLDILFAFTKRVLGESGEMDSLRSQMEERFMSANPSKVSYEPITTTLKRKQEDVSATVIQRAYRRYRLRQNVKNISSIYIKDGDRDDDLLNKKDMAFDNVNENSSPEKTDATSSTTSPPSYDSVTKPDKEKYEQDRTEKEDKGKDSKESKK

Row | IC50 [nM] | SMILES
1 | 291 | c1ccc(CN2CCC3(CC2)CC3CNc2ccccc2N2CCCCC2)cc1 (stereo unspecified)
2 | 151 | CN(C)c1ccc(C(=O)NC2CC23CCN(c2cc(F)cc(F)c2)CC3)c2ccccc12 (stereo unspecified)

The remaining lines, values behind:

Row | SMILES | IC50 [nM]
3 | O=C(NC1CC12CCN(c1ccccc1)CC2)c1ccc(F)c2ccccc12 (stereo unspecified) | 188
4 | CN(C)c1ccc(C(=O)NC2CC23CCN(c2ccccc2)CC3)c2ccccc12 (stereo unspecified) | 98.3
5 | CN(C)c1cccc2c(C(=O)NC3CC34CCN(c3ccccc3)CC4)cccc12 (stereo unspecified) | 237
6 | c1ccc(CC(NCC2CC23CCN(c2ccccc2)CC3)c2ccccc2)cc1 (stereo unspecified) | 177
